One experiment deals with T1, Peregrin (Homo sapiens, UniProt P55201).
T1 sequence (P55201 whole entry): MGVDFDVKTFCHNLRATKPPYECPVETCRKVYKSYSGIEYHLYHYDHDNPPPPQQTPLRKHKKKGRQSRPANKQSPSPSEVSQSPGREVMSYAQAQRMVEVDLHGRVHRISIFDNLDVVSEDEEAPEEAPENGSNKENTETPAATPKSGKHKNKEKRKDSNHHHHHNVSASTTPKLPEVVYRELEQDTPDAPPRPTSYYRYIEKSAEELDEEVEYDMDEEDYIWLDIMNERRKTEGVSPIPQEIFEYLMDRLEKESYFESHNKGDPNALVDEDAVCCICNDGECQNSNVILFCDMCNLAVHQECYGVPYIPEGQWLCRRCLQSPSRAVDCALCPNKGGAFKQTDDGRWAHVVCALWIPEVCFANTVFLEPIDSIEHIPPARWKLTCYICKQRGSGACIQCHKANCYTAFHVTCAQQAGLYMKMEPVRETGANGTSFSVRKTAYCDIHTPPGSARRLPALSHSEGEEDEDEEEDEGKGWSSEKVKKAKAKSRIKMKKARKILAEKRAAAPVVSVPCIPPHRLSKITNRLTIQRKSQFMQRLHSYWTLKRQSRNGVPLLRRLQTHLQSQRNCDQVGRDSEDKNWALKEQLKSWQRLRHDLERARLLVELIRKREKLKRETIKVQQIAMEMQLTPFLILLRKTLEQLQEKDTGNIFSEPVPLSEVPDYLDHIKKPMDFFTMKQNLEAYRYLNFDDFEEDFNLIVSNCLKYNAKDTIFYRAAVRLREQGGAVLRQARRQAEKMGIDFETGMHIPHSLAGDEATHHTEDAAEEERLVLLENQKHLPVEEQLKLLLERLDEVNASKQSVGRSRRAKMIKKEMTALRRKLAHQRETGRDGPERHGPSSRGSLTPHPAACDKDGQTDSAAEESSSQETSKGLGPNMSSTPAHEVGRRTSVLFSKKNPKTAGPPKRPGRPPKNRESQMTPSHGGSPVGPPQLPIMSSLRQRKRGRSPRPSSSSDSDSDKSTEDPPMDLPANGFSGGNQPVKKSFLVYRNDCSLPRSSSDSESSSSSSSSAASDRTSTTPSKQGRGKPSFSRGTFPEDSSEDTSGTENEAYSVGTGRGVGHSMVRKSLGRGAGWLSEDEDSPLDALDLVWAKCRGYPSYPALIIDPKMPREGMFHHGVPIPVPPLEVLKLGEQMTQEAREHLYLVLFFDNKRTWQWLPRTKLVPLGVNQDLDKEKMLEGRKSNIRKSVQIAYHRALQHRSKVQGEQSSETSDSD
Kind of experiment: Inhibition of BRPF1B (unknown origin) binding to histone H3.3 by nonoBRET assay.

In a further experiment the test system is DMS-114. The experiment in a line: Inhibition of cell proliferation of human DMS114 cells after 72 hrs by MTS assay. As to conditions: DMS-114, 72 h. The class given is functional. In general terms: Tetrazolium dyes change colour on reduction, which living cells bring about.
The target of experiment [1] is T2, Bromodomain-containing protein 1 (Homo sapiens, UniProt O95696).
T2 sequence (O95696 whole entry): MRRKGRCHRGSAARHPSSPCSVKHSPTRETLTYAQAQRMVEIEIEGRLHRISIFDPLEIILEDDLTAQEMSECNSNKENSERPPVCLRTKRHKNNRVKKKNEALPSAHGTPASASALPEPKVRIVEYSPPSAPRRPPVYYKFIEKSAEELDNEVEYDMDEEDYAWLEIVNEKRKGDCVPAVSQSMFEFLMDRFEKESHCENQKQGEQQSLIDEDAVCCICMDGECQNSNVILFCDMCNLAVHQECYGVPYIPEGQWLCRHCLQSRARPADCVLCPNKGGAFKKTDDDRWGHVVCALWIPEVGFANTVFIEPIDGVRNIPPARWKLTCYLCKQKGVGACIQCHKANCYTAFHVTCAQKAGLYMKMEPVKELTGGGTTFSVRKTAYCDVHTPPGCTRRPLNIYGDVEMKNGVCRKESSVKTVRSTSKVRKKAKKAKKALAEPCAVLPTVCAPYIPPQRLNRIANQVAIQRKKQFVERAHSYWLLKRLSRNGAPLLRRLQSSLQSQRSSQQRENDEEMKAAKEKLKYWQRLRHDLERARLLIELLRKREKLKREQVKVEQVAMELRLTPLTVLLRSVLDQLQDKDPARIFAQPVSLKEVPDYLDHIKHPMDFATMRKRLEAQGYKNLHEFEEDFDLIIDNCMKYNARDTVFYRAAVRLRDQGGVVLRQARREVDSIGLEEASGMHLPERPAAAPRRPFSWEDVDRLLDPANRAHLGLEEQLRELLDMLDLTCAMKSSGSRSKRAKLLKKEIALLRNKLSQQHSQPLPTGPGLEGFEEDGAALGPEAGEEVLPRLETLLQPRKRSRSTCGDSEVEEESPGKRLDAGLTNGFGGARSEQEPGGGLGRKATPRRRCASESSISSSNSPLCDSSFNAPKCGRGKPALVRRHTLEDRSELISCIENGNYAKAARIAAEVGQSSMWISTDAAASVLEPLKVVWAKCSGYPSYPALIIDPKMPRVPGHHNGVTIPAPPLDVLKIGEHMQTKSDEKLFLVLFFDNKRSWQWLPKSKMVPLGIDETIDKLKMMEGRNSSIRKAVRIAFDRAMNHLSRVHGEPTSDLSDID
The experiment in a line: Inhibition of His-tagged BRPF2 (unknown origin) after 30 mins by alphaScreen assay. For orientation: In Alpha technology, singlet oxygen from a donor bead excites a nearby acceptor bead.

The target in experiment [2] is T3, Bromodomain-containing protein 9 (Homo sapiens, UniProt Q9H8M2).
T3 sequence (Q9H8M2 whole entry): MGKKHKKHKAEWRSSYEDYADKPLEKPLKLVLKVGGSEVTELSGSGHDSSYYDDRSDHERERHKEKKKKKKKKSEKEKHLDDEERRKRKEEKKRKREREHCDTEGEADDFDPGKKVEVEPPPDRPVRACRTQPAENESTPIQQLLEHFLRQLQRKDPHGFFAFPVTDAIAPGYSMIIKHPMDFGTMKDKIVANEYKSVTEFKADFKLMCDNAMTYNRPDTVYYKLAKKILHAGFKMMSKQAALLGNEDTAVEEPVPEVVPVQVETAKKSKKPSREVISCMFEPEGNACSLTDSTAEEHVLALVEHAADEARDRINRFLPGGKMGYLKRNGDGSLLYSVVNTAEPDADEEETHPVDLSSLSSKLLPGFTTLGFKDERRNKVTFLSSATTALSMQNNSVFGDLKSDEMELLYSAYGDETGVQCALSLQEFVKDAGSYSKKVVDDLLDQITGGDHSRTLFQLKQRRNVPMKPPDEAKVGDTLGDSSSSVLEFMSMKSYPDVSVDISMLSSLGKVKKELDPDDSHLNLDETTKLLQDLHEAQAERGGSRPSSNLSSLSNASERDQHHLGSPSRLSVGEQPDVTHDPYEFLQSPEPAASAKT
The experiment in a line: Binding affinity to BRD9 (unknown origin) by isothermal titration calorimetry. For orientation: Isothermal titration calorimetry measures the heat released or taken up as one component is titrated into another.

What is called IC50 is the midpoint of a concentration-inhibition curve. As usually defined, the GI50 is the concentration at which growth is held to half of that of the control. Higher therefore signals lower sensitivity of the cells. The Kd is the constant that tells how readily two partners part at equilibrium. Low readings indicate higher affinity, high ones lower affinity. Take `COc1cc(C#N)ccc1S(=O)(=O)Nc1ccc2c(c1)cc(C)c(=O)n2C`: the values for the IC50 (at Peregrin; in experiment [1]) were 70 nM and 619 nM, respectively. For the same molecule, in the experiment on DMS-114, the concentration for 50% growth inhibition (GI50) was determined as 14700 nM. In experiment [2], the Kd stood at 1000 nM.

The values above are taken from ChEMBL document CHEMBL4028852, “Design of a Chemical Probe for the Bromodomain and Plant Homeodomain Finger-Containing (BRPF) Family of Proteins” (J Med Chem, 2017).
